The results in this text go back to US20160280699A1, “SUBSTITUTED PHENYLALANINE DERIVATIVES” (BAYER PHARMA AKTIENGESELLSCHAFT, priority 2013, published 2016).

Where a name gives a salt, the structure may show the parent alone.

For one assay, the target named is T1, human factor XIa (Homo sapiens, UniProt P03951).
T1 construct: purchased Kordia
The assay can be described thus: Measurement of FXIa inhibition (fluorogenic peptide substrate Boc-Glu(OBzl)-Ala-Arg-AMC). It counts as biochemical. As to conditions: factor XIa from Kordia, 15 min preincubation, 30 min at 22° C., fluorescence. The method, then:
The factor XIa inhibition of the substances according to the invention is determined using a biochemical test system which utilizes the reaction of a peptidic factor XIa substrate to determine the enzymatic activity of human factor XIa. Here, factor XIa cleaves from the peptic factor XIa substrate the C-terminal aminomethylcoumarin (AMC), the fluorescence of which is measured. The determinations are carried out in microtitre plates.
Test substances are dissolved in dimethyl sulphoxide and serially diluted in dimethyl sulphoxide (3000 μM to 0.0078 μM; resulting final concentrations in the test: 50 μM to 0.00013 μM). In each case 1 μl of the diluted substance solutions is placed into the wells of white microtitre plates from Greiner (384 wells). Subsequently, the following are added successively: 20 μl of assay buffer (50 mmol/l Tris buffer pH 7.4; 100 mmol/l sodium chloride; 5 mmol/l calcium chloride; 0.1% bovine serum albumin) and 20 μl of factor XIa from Kordia (0.45 nM in assay buffer). After 15 min of incubation, the enzyme reaction is started by addition of 20 μl of the factor XIa substrate Boc-Glu(OBzl)-Ala-Arg-AMC dissolved in assay buffer (10 μM in assay buffer) from Bachem, the mixture is incubated at room temperature (22° C.) for 30 min and fluorescence is then measured (excitation: 360 nm, emission: 460 nm). The measured emissions of the test batches with test substance are compared to those of control batches without test substance (only dimethyl sulphoxide instead of test substance in dimethyl sulphoxide), and IC50 values are calculated from the concentration/activity relationships.

The subject of another assay is human and animal plasma. The assay can be described thus: Determination of anticoagulatory activity: activated partial thromboplastin time (aPTT) in plasma. It counts as biochemical. To be noted: concentration of test substance which brings about a 1.5-fold extension of the aPTT, 37° C., C.K. Prest kit. As to the method:
The anticoagulatory activity of the test substances is determined in vitro in human and animal plasma (for example mouse, rat, rabbit, pig and dog plasma). To this end, blood is drawn off in a mixing ratio of sodium citrate/blood of 1:9 using a 0.11 molar sodium citrate solution as receiver. Immediately after the blood has been drawn off, it is mixed thoroughly and centrifuged at about 4000 g for 15 minutes. The supernatant is pipetted off.
The activated partial thromboplastin time (aPTT) is determined in the presence of varying concentrations of test substance or the corresponding solvent using a commercial test kit (C.K. Prest from Diagnostica Stago). The test compounds are incubated with the plasma and the PTT reagent (cephalin, kaolin) at 37° C. for 3 minutes. Coagulation is then started by addition of a 25 mM aqueous calcium chloride solution, and the time when coagulation occurs is determined. The concentration of test substance which brings about a 1.5-fold extension of the aPTT is determined Activity data from this test are listed in Table B below: […]

T1 sequence (P03951 388-625 limits assumed): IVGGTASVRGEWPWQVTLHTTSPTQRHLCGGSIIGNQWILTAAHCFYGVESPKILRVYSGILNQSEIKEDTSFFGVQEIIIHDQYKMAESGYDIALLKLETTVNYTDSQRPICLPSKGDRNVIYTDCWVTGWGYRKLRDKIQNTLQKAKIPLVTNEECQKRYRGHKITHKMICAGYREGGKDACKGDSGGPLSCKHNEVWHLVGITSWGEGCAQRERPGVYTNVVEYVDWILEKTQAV
T1 sequence (P03951 19-387 partner limits assumed): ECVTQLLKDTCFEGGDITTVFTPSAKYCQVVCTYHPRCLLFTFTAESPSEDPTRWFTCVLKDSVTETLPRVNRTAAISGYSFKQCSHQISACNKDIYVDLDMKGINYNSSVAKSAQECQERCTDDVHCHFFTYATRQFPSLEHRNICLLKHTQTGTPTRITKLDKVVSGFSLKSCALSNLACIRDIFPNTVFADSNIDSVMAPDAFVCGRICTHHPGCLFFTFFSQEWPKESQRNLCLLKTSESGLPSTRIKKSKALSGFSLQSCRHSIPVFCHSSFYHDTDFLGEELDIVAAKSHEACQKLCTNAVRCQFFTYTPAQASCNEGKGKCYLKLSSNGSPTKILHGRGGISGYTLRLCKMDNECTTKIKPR

At human factor XIa, `NC[C@H]1CC[C@H](C(=O)N[C@@H](Cc2ccc(-c3cnc(N4CCOCC4)nc3)cc2)C(=O)Nc2ccc(-c3nnn[nH]3)cc2)CC1` [Example 1, N-alpha-{[trans-4-(Aminomethyl)cyclohexyl]carbonyl}-4-[2-(morpholin-4-yl)pyrimidin-5-yl]-N-[4-(1H-tetrazol-5-yl)phenyl]-L-phenylalaninamide hydrochloride] gave an IC50 of 5.7 nM. On to `CN1CCN(S(=O)(=O)c2cncc(-c3ccc(C[C@H](NC(=O)[C@H]4CC[C@H](CN)CC4)C(=O)Nc4ccc(-c5nnn[nH]5)cc4)cc3)c2)CC1` [Example 2, N-alpha-{[trans-4-(Aminomethyl)cyclohexyl]carbonyl}-4-{5-[(4-methylpiperazin-1-yl)sulphonyl]pyridin-3-yl}-N-[4-(1H-tetrazol-5-yl)phenyl]-L-phenylalaninamide hydrochloride], for which the “aPTT” value in the assay on human and animal plasma is 0.28 µmol/L. In addition, at human factor XIa, the IC50 was 5.3 nM. For `NC[C@H]1CC[C@H](C(=O)N[C@@H](Cc2ccc(-c3cccnc3Cl)cc2)C(=O)Nc2ccc(-c3nnn[nH]3)cc2)CC1` [Example 3, N-alpha-{[trans-4-(Aminomethyl)cyclohexyl]carbonyl}-4-(2-chloropyridin-3-yl)-N-[4-(1H-tetrazol-5-yl)phenyl]-L-phenylalaninamide hydrochloride] the same measures were 0.24 µmol/L and 2.3 nM. In the case of `CN(C)c1ccc(-c2ccc(C[C@H](NC(=O)[C@H]3CC[C@H](CN)CC3)C(=O)Nc3ccc(-c4nnn[nH]4)cc3)cc2)cn1` [Example 4, N-alpha-{[trans-4-(Aminomethyl)cyclohexyl]carbonyl}-4-[6-(dimethylamino)pyridin-3-yl]-N-[4-(1H-tetrazol-5-yl)phenyl]-L-phenylalaninamide hydrochloride], the “aPTT” value in the assay on human and animal plasma was 0.23 µmol/L. At human factor XIa, this molecule gave an IC50 of 3.8 nM. On the same counts, the results for `NC[C@H]1CC[C@H](C(=O)N[C@@H](Cc2ccc(-c3cccnc3)cc2)C(=O)Nc2ccc(-c3nn[nH]n3)cc2)CC1` [Example 5, N-alpha-{[trans-4-(Aminomethyl)cyclohexyl]carbonyl}-4-pyridin-3-yl-N-[4-(2H-tetrazol-5-yl)phenyl]phenylalaninamide] are 0.35 µmol/L and 7 nM. The molecule `CN(C)CCCOc1ccc(-c2ccc(C[C@H](NC(=O)[C@H]3CC[C@H](CN)CC3)C(=O)Nc3ccc(-c4nn[nH]n4)cc3)cc2)cn1` [Example 6, N-alpha-{[trans-4-(Aminomethyl)cyclohexyl]carbonyl}-4-{6-[3-(dimethylamino)propoxy]pyridin-3-yl}-N-[4-(2H-tetrazol-5-yl)phenyl]-L-phenylalaninamide hydrochloride] came in with an IC50 against human factor XIa of 15 nM. As for `NC[C@H]1CC[C@H](C(=O)N[C@@H](Cc2ccc(-c3ccc(N4CCOCC4)nc3)cc2)C(=O)Nc2ccc(-c3nn[nH]n3)cc2)CC1` [Example 7, N-alpha-{[trans-4-(Aminomethyl)cyclohexyl]carbonyl}-4-[6-(morpholin-4-yl)pyridin-3-yl]-N-[4-(2H-tetrazol-5-yl)phenyl]-L-phenylalaninamide hydrochloride], the “aPTT” value in the assay with human and animal plasma was 0.29 µmol/L. In addition, 2.2 nM corresponded to half-maximal inhibition on human factor XIa (IC50). For `NC[C@H]1CC[C@H](C(=O)N[C@@H](Cc2ccc(-c3ccncc3)cc2)C(=O)Nc2ccc(-c3noc(=O)[nH]3)cc2)CC1` [Example 8, N-alpha-{[trans-4-(Aminomethyl)cyclohexyl]carbonyl}-N-[4-(5-oxo-4,5-dihydro-1,2,4-oxadiazol-3-yl)phenyl]-4-pyridin-4-yl-L-phenylalaninamide hydrochloride] the same measures were 0.15 µmol/L and 9.2 nM. The molecule `NC[C@H]1CC[C@H](C(=O)N[C@@H](Cc2ccc(-c3cncc(Cl)c3)cc2)C(=O)Nc2ccc(-c3nn[nH]n3)cc2)CC1` [Example 10, N-alpha-{[trans-4-(Aminomethyl)cyclohexyl]carbonyl}-4-(5-chloropyridin-3-yl)-N-[4-(2H-tetrazol-5-yl)phenyl]-L-phenylalaninamide hydrochloride] registered an IC50 against human factor XIa of 6.2 nM.

Turning to `NC[C@H]1CC[C@H](C(=O)N[C@@H](Cc2ccc(-c3ccncc3)cc2)C(=O)Nc2ccc(-c3nn[nH]n3)cc2)CC1` [Example 11, N-alpha-{[trans-4-(Aminomethyl)cyclohexyl]carbonyl}-4-pyridin-4-yl-N-[4-(2H-tetrazol-5-yl)phenyl]-L-phenylalaninamide hydrochloride], the “aPTT” value with human and animal plasma was determined as 0.24 µmol/L. Besides, it took 5.2 nM to reach half-maximal inhibition against human factor XIa (IC50).

Consider `NC[C@H]1CC[C@H](C(=O)N[C@@H](Cc2ccc(-c3cnccc3Cl)cc2)C(=O)Nc2ccc(-c3nn[nH]n3)cc2)CC1` [Example 12, N-alpha-{[trans-4-(Aminomethyl)cyclohexyl]carbonyl}-4-(4-chloropyridin-3-yl)-N-[4-(2H-tetrazol-5-yl)phenyl]-L-phenylalaninamide hydrochloride], for which the “aPTT” value in the assay with human and animal plasma was determined as 0.43 µmol/L. For the same molecule, the IC50 on human factor XIa amounted to 5.9 nM.

Regarding `Cc1ncccc1-c1ccc(C[C@H](NC(=O)[C@H]2CC[C@H](CN)CC2)C(=O)Nc2ccc(-c3nn[nH]n3)cc2)cc1` [Example 13, N-alpha-{[trans-4-(Aminomethyl)cyclohexyl]carbonyl}-4-(2-methylpyridin-3-yl)-N-[4-(2H-tetrazol-5-yl)phenyl]-L-phenylalaninamide hydrochloride], the “aPTT” value in the assay on human and animal plasma was found to be 0.13 µmol/L. Further, the IC50 on human factor XIa came to 2.1 nM.

On to `NC[C@H]1CC[C@H](C(=O)N[C@@H](Cc2ccc(-c3cccnc3)cc2)C(=O)Nc2ccc(-c3noc(=O)[nH]3)cc2)CC1` [Example 14, N-alpha-{[trans-4-(Aminomethyl)cyclohexyl]carbonyl}-N-[4-(5-oxo-4,5-dihydro-1,2,4-oxadiazol-3-yl)phenyl]-4-pyridin-3-yl-L-phenylalaninamide hydrochloride], for which the “aPTT” value with human and animal plasma was determined as 0.28 µmol/L. The same molecule gave an IC50 on human factor XIa of 8.5 nM. On the same counts, the results for `NC[C@H]1CC[C@H](C(=O)N[C@@H](Cc2ccc(-c3ccncc3Cl)cc2)C(=O)Nc2ccc(-c3nn[nH]n3)cc2)CC1` [Example 15, N-alpha-{[trans-4-(Aminomethyl)cyclohexyl]carbonyl}-4-(3-chloropyridin-4-yl)-N-[4-(2H-tetrazol-5-yl)phenyl]-L-phenylalaninamide hydrochloride] are 0.14 µmol/L and 2.8 nM. Consider `NC[C@H]1CC[C@H](C(=O)N[C@@H](Cc2ccc(-c3ccc(O)nc3)cc2)C(=O)Nc2ccc(-c3nn[nH]n3)cc2)CC1` [Example 17, N-alpha-{[trans-4-(Aminomethyl)cyclohexyl]carbonyl}-4-(6-hydroxypyridin-3-yl)-N-[4-(2H-tetrazol-5-yl)phenyl]-L-phenylalaninamide hydrochloride], for which the IC50 against human factor XIa was determined as 10 nM. Still for that read-out and setting: next, `COc1ccc(-c2ccc(C[C@H](NC(=O)[C@H]3CC[C@H](CN)CC3)C(=O)Nc3ccc4cn[nH]c4c3)cc2)c(C)n1` [Example 28, N-alpha-{[trans-4-(Aminomethyl)cyclohexyl]carbonyl}-N-1H-indazol-6-yl-4-(6-methoxy-2-methylpyridin-3-yl)-L-phenylalaninamide hydrochloride]: 7.8 nM; `NC[C@H]1CC[C@H](C(=O)N[C@@H](Cc2ccc(-c3ccnc(N4CCOCC4)c3)cc2)C(=O)Nc2ccc3c(=O)[nH][nH]c3c2)CC1` [Example 36, N-alpha-{[trans-4-(Aminomethyl)cyclohexyl]carbonyl}-4-[2-(morpholin-4-yl)pyridin-4-yl]-N-(3-oxo-2,3-dihydro-1H-indazol-6-yl)-L-phenylalaninamide hydrochloride]: 7.2 nM. The same measure, in the same setting: next, `COc1ccc(-c2ccc(C[C@H](NC(=O)[C@H]3CC[C@H](CN)CC3)C(=O)Nc3ccc(-c4nn[nH]n4)cc3)cc2)cn1` [Example 38, N-alpha-{[trans-4-(Aminomethyl)cyclohexyl]carbonyl}-4-(6-methoxypyridin-3-yl)-N-[4-(2H-tetrazol-5-yl)phenyl]-L-phenylalaninamide]: 4.8 nM. On the same count and under the same terms, next, `CCOc1ncccc1-c1ccc(C[C@H](NC(=O)[C@H]2CC[C@H](CN)CC2)C(=O)Nc2ccc(-c3nn[nH]n3)cc2)cc1` [Example 42, N-alpha-{[trans-4-(Aminomethyl)cyclohexyl]carbonyl}-4-(2-ethoxypyridin-3-yl)-N-[4-(2H-tetrazol-5-yl)phenyl]-L-phenylalaninamide hydrochloride]: 3 nM.

The IC50 is the concentration that inhibits the measured activity by half.
